# Laboratory results as given in patent publication US8609812B2, “Use of β-2-microglobulin to assess glomerular alterations and damage in the kidney” (Novartis AG, priority 2007, dated 2013).
# Tested on: kidney
# Assay: rat in vivo studies, histopathology of kidney
# Text: Results of in vivo studies and histopathology. All 10 rat in vivo studies were successfully conducted.
# In FIG. 2, the distributions of grades of the histopathology assessment are shown. The predominance of grade 1 and grade 2 findings and the absence of grade 5 lesions indicate that the goal of inducing mainly mild nephrotoxicity has been achieved. The considerable number of grade 1 and some grade 2 findings in the vehicle-dosed and the hepatotoxicant-dosed animals indicates the level of sensitivity of the histopathology assessment performed in this project. No significant dose-dependent nephrotoxicity was induced by the hepatotoxicants. In FIG. 3 a detailed list of all reported localized lesions, including the number of occurrences for each grade, separated by nephrotoxicant-dosed animals and the control animals (vehicle-dosed and hepatotoxicant-dosed) is shown. Seventy-five different localized finding were observed.
# The different types of lesions were usually not observed in an isolated fashion, but typically in a highly correlated manner representing different molecular processes. In FIG. 4, all histopathology findings are shown for the cisplatin study. […] In addition, a logical sequence of molecular processes along the dose- and time-ordered animals can be observed. […]
SMILES,"histopathology findings in the kidney (ANIT study, vehicle or different doses)","renal histopathology findings, sequence of processes (rat, in vivo)"
"S=C=Nc1cccc2ccccc12 [ANIT, alpha-naphtylisothiocyanate]",not in the kidney,
N.N.[Cl][Pt][Cl] [cisplatin],,"Necrosis as a consequence of damage is seen, and then regeneration processes such as basophilia and mitosis are seen"
